From patent US20260183407A1, “DYRK/CLK PROTACS AND USES THEREOF” (Arizona Board of Regents on Behalf of the University of …, priority 2022, published 2026)

How the values were obtained:
DYRK1B [1] = biological target: T1, DYRK1B (Homo sapiens, UniProt Q9Y463); assay: KdELECT kinase binding assay (Eurofins), DYRK1B; conditions: 11-point 3-fold dilution series, qPCR readout; read-out: Binding Affinity (Kd) DYRK1B
T1 construct: purchased Eurofins; host or cells: E. coli BL21-derived (T7 phage display) or HEK-293
T1 sequence (Q9Y463 whole entry, species assumed): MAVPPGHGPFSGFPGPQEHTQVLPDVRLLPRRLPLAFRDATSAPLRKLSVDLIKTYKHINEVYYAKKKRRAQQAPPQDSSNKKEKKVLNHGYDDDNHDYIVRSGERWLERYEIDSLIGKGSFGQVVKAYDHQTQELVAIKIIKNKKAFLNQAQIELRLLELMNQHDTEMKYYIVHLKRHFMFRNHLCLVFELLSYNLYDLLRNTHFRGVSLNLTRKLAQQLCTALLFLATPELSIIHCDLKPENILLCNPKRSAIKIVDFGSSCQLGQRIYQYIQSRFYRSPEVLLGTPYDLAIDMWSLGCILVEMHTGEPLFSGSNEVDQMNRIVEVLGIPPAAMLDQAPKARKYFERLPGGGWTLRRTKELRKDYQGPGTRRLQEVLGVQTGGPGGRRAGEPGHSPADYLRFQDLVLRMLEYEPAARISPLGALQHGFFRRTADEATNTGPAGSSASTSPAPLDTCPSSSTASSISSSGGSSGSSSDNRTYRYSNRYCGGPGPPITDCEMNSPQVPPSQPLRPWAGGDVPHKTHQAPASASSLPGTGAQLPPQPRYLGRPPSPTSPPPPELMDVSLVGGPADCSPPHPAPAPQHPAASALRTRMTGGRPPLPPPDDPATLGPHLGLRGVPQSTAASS

DYRK1A [2] = biological target: T2, DYRK1A (Homo sapiens, UniProt Q13627); assay: HiBiT split luciferase assay of targeted degradation of DYRK1A in Flp-In T-REx 293 cells; assay type: cell-based; conditions: 300 nM compound, 24 h, HiBiT-tagged DYRK1A in Flp-In T-REx 293 cells, normalized to vehicle; read-out: Relative Degradation at 300 nM DYRK1A
T2 construct: purchased Eurofins; host or cells: E. coli BL21-derived (T7 phage display) or HEK-293

DYRK1B [3] = biological target: T1, DYRK1B; assay: HiBiT split luciferase assay of targeted degradation of DYRK1B in Flp-In T-REx 293 cells; assay type: cell-based; conditions: 300 nM compound, 24 h, HiBiT-tagged DYRK1B in Flp-In T-REx 293 cells, normalized to vehicle; read-out: Relative Degradation at 300 nM DYRK1B
Text: The Flp-In T-REx 293 Cell Line and the pcDNA5/FRT/TO vector (Invitrogen) were used to generate stable cell clones for tetracyclin-inducible expression of DYRK1A and DYRK1B. These cells contain a single stably integrated Flp recognition target (FRT) site, which allows for site-specific integration of the expression cassette by the Flp (Flippase) recombinase. DYRK1 constructs were designed to contain a C-terminal HiBiT tag for quantitative detection of HiBiT-tagged proteins in cellular lysates with the help a split luciferase assay (Nano-Glo HiBiT Lytic Detection System, Promega). To monitor the targeted degradation of DYRK1A or DYRK1B, cells were seeded in 96-well plates (10,000 cells/per well) and treated with doxycyclineinal concentration 2 μg/ml) to induce DYRK1 expression. Compounds with presumed PROTAC activity were administered 24 h after seeding. After further incubation for 24 h, cells were grossly and microscopically inspected for overt toxicity. Cells were lysed in 100 μL ice-cold passive lysis buffer (PLB, Promega) by orbital shaking (30 min on ice) before lysates were centrifuged in PCR tube (20 min 20,000 g, RT). A 10 μl aliquot of the supernatant was subjected to the HiBiT lytic assay. Luminescence was quantified in an Orion Microplate luminometer (Berthold Detection System, Germany). All compounds were tested in duplicate or triplicate wells (technical replicates) and at least two independent experiments. Relative degradation was calculated by normalization to vehicle-treated control samples.

DYRK1A [4] = biological target: T2, DYRK1A; assay: KdELECT kinase binding assay (Eurofins), DYRK1A; conditions: 11-point 3-fold dilution series, qPCR readout; read-out: Binding Affinity (Kd) DYRK1A

Row | Compound | Kd (DYRK1B [1]) [nM] | inhibition at 0.3 µM (DYRK1A [2]) [%] | inhibition at 0.3 µM (DYRK1B [3]) [%] | Kd (DYRK1A [4]) [nM]
1 | Cc1nc2ccc(-c3ccnc(N)c3)nc2n1-c1cc(F)c(N2CCN(CC#Cc3ccc(N4CCC(C(=O)N5CCC(n6cc(CNc7cccc8c7C(=O)N(C7CCC(=O)NC7=O)C8=O)cn6)CC5)CC4)nc3)CC2)c(F)c1 (stereo not shown) [Compound 23, 4-(((1-(1-(1-(5-(3-(4-(4-(5-(2-aminopyridin-4-yl)-2-methyl-3H-imidazo[4,5-b]pyridin-3-yl)-2,6-difluorophenyl)piperazin-1-yl)prop-1-yn-1-yl)pyridin-2-yl)piperidine-4-carbonyl)piperidin-4-yl)-1H-pyrazol-4-yl)methyl)amino)-2-(2,6-dioxopiperidin-3-yl)isoindoline-1,3-dione] | < 10 | > 60 | > 50 | < 10
2 | Cc1ncsc1-c1ccc(CNC(=O)[C@@H]2C[C@@H](O)CN2C(=O)[C@@H](NC(=O)CCOCCOCCN2CCN(c3ccc(-n4c(C)nc5ccc(-c6ccnc(N)c6)nc54)cc3F)CC2)C(C)(C)C)cc1 [Compound 1, (2S,4R)-1-((S)-2-(3-(2-(2-(4-(4-(5-(2-aminopyridin-4-yl)-2-methyl-3H-imidazo[4,5-b]pyridin-3-yl)-2-fluorophenyl)piperazin-1-yl)ethoxy)ethoxy)propanamido)-3,3-dimethylbutanoyl)-4-hydroxy-N-(4-(4-methylthiazol-5-yl)benzyl)pyrrolidine-2-carboxamide] | < 10 | < 30 | < 30 | < 10
3 | Cc1nc2ccc(-c3ccnc(N)c3)nc2n1-c1ccc(N2CCN(CCOCCOCCOCCOCCNc3cccc4c3C(=O)N(C3CCC(=O)NC3=O)C4=O)CC2)c(F)c1 (stereo not shown) [Compound 7, 4-((14-(4-(4-(5-(2-aminopyridin-4-yl)-2-methyl-3H-imidazo[4,5-b]pyridin-3-yl)-2-fluorophenyl)piperazin-1-yl)-3,6,9,12-tetraoxatetradecyl)amino)-2-(2,6-dioxopiperidin-3-yl)isoindoline-1,3-dione, N,N-Diisopropylethylamine] | < 10 | 30 to 60 | 30 to 50 | < 10
4 | Cc1ncsc1-c1ccc(CNC(=O)[C@@H]2C[C@@H](O)CN2C(=O)[C@@H](NC(=O)CCOCCOCCOCCOCCN2CCN(c3ccc(-n4c(C)nc5ccc(-c6ccnc(N)c6)nc54)cc3F)CC2)C(C)(C)C)cc1 [Compound 3, (2S,4R)-1-((S)-1-(4-(4-(5-(2-aminopyridin-4-yl)-2-methyl-3H-imidazo[4,5-b]pyridin-3-yl)-2-fluorophenyl)piperazin-1-yl)-17-(tert-butyl)-15-oxo-3,6,9,12-tetraoxa-16-azaoctadecan-18-oyl)-4-hydroxy-N-(4-(4-methylthiazol-5-yl)benzyl)pyrrolidine-2-carboxamide] | < 10 | < 30 | < 30 | < 10
